Experimental data as given in patent US20120064176A1, “COMPOSITION FOR PREVENTING AND TREATING FATTY LIVER” (National Chung Hsing University, priority 2008, published 2012).

System: C57BL/6JNarl mice
Assay: Hepatic triglycerides after 7 weeks of lactoferrin, chromium or lactoferrin+chromium in high-fat-diet mice
Assay type: in vivo
Settings: 10 mice in each group
Procedure: Male C57BL/6JNarl mice (n=70) fed with high fat diet (high-fat Rodent TestDiet, PMI International Inc., MO, USA; 67% of calories provided by fat), age 8 weeks, are randomly divided into the control group, the low-dose lactoferrin group (NZMP lactoferrin, New Zealand, 40 mg/kg BW/day), the high-dose lactoferrin group (80 mg/kg BW/day), the low-dose chromium group (CrCl3·6H2O, Sigma, Cr^+3 40 μg/kg BW/day), the high dose chromium group (Cr^+3 80 μg/kg BW/day), the low-dose lactoferrin+chromium group (lactoferrin 40 mg/kg BW/day+Cr^+3 40 μg/kg BW/day), and the high-dose lactoferrin+chromium group (lactoferrin 80 mg/kg BW/day+Cr^+3 80 μg/kg BW/day) (10 mice in each group). After supplementation for 7 weeks, the C57BL/6JNarl mice are sacrificed and their livers are harvested. Then, the level of hepatic triglycerides is analyzed. […] However, no significant difference between the other groups is found.

With O.O.O.O.O.O.[Cl][Cr]([Cl])[Cl] [chromium, CrCl3·6H2O] the “Hepatic triglycerides, High-dose” value (High-dose: lactoferrin 80 mg/kg BW/day and/or Cr+3 80 μg/kg BW/day) was 19.0 ± 5.7 μ mol/g liver and the “Hepatic triglycerides, Low-dose” value (Low-dose: lactoferrin 40 mg/kg BW/day and/or Cr+3 40 μg/kg BW/day) was 18.4 ± 8.1 μ mol/g liver.
